# According to ChEMBL document CHEMBL1121855, “Potential salicylamide antiplaque agents: in vitro antibacterial activity against Actinomyces viscosus” (J Med Chem, 1981):
# Legend:
# Actinomyces israelii [1] = test: In vitro antibacterial activity against Actinomycetes israelii 28360; type: functional
# Actinomyces naeslundii [2] = test: In vitro antibacterial activity against Actinomycetes naeslundii 12104; type: functional
# Actinomyces naeslundii [3] = test: In vitro antibacterial activity against Actinomycetes naeslundii 8115; type: functional
# Actinomyces viscosus [4] = test: In vitro antibacterial activity against Actinomyces viscosus M-100-2000; type: functional
# Actinomyces israelii [5] = test: In vitro antibacterial activity against Actinomycetes israelii 10048; type: functional
# Actinomyces viscosus [6] = test: In vitro antibacterial activity against Actinomycetes viscosus T14V; type: functional
# Actinomyces israelii [7] = test: In vitro antibacterial activity against Actinomycetes israelii 12836; type: functional
# [8] = Distribution coefficient between octanol and aqueous phase at pH7.2; type: physicochemical; conditions: pH 7.2
# [9] = Observed inhibitory activity against various Actinomycetes strains; conditions: actinomycetaceae
# [10] = Partition coefficient is determined in octanol/buffer solution; type: physicochemical
# [11] = Dissociation constant is the negative logarithm of the equilibrium coefficient of the neutral and charged forms of the compound; type: physicochemical
smiles,measurement,setting,value
CCCCCCCCCC(=O)c1ccc(O)c(C(=O)Nc2nc3ccccc3s2)c1,MIC,Actinomyces israelii [1],> 10 µg/mL
same,MIC,Actinomyces naeslundii [2],> 10 µg/mL
same,MIC,Actinomyces naeslundii [3],> 10 µg/mL
same,MIC,Actinomyces viscosus [4],0.5 µg/mL
same,MIC,Actinomyces israelii [5],5 µg/mL
same,MIC,Actinomyces viscosus [6],10 µg/mL
same,MIC,Actinomyces israelii [7],> 10 µg/mL
COc1ccc(NC(=O)c2cc(C)ccc2O)cc1,MIC,Actinomyces viscosus [4],> 40 µg/mL
CCCCCCCCCC(=O)c1ccc(O)c(C(=O)NCc2ccc(Cl)c(Cl)c2)c1,MIC,Actinomyces viscosus [4],0.5 µg/mL
O=C(NCc1ccc(Cl)cc1)c1cc(Br)cc(Br)c1O,MIC,Actinomyces viscosus [4],4 µg/mL
CCCCCCCCCCCC(=O)c1ccc(O)c(C(=O)Nc2ccc([N+](=O)[O-])cc2)c1,MIC,Actinomyces viscosus [4],0.05 µg/mL
CCCCCCCCc1ccc(O)c(C(=O)Nc2ccc(Br)cc2)c1,MIC,Actinomyces viscosus [4],0.2 µg/mL
Cc1ccc(O)c(C(=O)Nc2ccc([N+](=O)[O-])cc2)c1,MIC,Actinomyces viscosus [4],5 µg/mL
O=C(Nc1nc2cc(Cl)ccc2o1)c1cc(Br)cc(Br)c1O,MIC,Actinomyces viscosus [4],> 35 µg/mL
CCCCCCc1ccc(O)c(C(=O)NCc2ccc(C)c([N+](=O)[O-])c2)c1,MIC,Actinomyces viscosus [4],> 20 µg/mL
CCCCCCCC(=O)c1ccc(O)c(C(=O)Nc2ccc([N+](=O)[O-])cc2)c1,MIC,Actinomyces viscosus [4],0.1 µg/mL
CCCCCCCCCC(=O)c1ccc(O)c(C(=O)Nc2ccc(Br)cc2)c1,logD,[8],6.88
same,Log 1/MIC,[9],6.87
same,logP,"[10]; octanol/buffer, read-out: logP",8.02
same,pKa,[11],6.1
same,MIC,Actinomyces viscosus [4],0.06 µg/mL
O=C(Nc1nc2cc(Cl)ccc2[nH]1)c1cc(Br)cc(Br)c1O,MIC,Actinomyces viscosus [4],4 µg/mL
O=C(Nc1nc2c(Cl)cccc2s1)c1cc(Br)cc(Br)c1O,MIC,Actinomyces viscosus [4],1.7 µg/mL
O=C(Nc1ccc(Br)cc1)c1cc([N+](=O)[O-])ccc1O,logD,[8],3.16
same,Log 1/MIC,[9],5.05
same,logP,"[10]; octanol/buffer, read-out: logP",4.58
same,pKa,[11],5.8
same,MIC,Actinomyces viscosus [4],3 µg/mL
CCCCc1ccc(O)c(C(=O)Nc2cccc(C(F)(F)F)c2)c1,MIC,Actinomyces viscosus [4],0.5 µg/mL
O=C(Nc1ccc(Br)cc1)c1ccccc1O,logD,[8],3.78
same,Log 1/MIC,[9],4.47
same,logP,"[10]; octanol/buffer, read-out: logP",4.13
same,pKa,[11],7.1
same,MIC,Actinomyces viscosus [4],10 µg/mL
CCC(=O)c1ccc(O)c(C(=O)Nc2ccc(Br)cc2)c1,logD,[8],3.38
same,Log 1/MIC,[9],4.43
same,logP,"[10]; octanol/buffer, read-out: logP",4.52
same,pKa,[11],6.1
same,MIC,Actinomyces viscosus [4],13 µg/mL
Cc1nnc(NC(=O)c2cc(Br)cc(Br)c2O)s1,MIC,Actinomyces viscosus [4],100 µg/mL
CCCCCCc1ccc(O)c(C(=O)NCc2ccc([N+](=O)[O-])cc2)c1,MIC,Actinomyces israelii [1],0.1 µg/mL
same,MIC,Actinomyces naeslundii [2],0.05 µg/mL
same,MIC,Actinomyces naeslundii [3],0.05 µg/mL
same,MIC,Actinomyces viscosus [4],0.05 µg/mL
same,MIC,Actinomyces israelii [5],0.5 µg/mL
same,MIC,Actinomyces viscosus [6],0.05 µg/mL
same,MIC,Actinomyces israelii [7],0.1 µg/mL
O=C(NCCCCCCNC(=O)c1cc(Br)ccc1O)c1cc(Br)ccc1O,MIC,Actinomyces viscosus [4],> 20 µg/mL
CCCCCCCC(=O)c1ccc(O)c(C(=O)Nc2cccc(C(F)(F)F)c2)c1,MIC,Actinomyces viscosus [4],0.5 µg/mL
CCCCCCc1ccc(O)c(C(=O)NCc2ccc(Cl)cc2)c1,MIC,Actinomyces viscosus [4],10 µg/mL
CCCCCCCCCCCC(=O)c1ccc(O)c(C(=O)Nc2cccc(C(F)(F)F)c2)c1,MIC,Actinomyces israelii [1],0.1 µg/mL
same,MIC,Actinomyces naeslundii [2],0.1 µg/mL
same,MIC,Actinomyces naeslundii [3],0.05 µg/mL
same,MIC,Actinomyces viscosus [4],0.5 µg/mL
same,MIC,Actinomyces israelii [5],0.1 µg/mL
same,MIC,Actinomyces viscosus [6],0.1 µg/mL
same,MIC,Actinomyces israelii [7],0.5 µg/mL
CCCCCCCCCCCC(=O)c1ccc(O)c(C(=O)NCc2ccc(Cl)c(Cl)c2)c1,MIC,Actinomyces viscosus [4],5 µg/mL
CCCCCC(=O)c1ccc(O)c(C(=O)Nc2ccc(Br)cc2)c1,logD,[8],4.88
same,Log 1/MIC,[9],5.6
same,logP,"[10]; octanol/buffer, read-out: logP",6.02
same,pKa,[11],6.1
same,MIC,Actinomyces viscosus [4],1 µg/mL
Cc1cc(C(=O)Nc2ccc(Br)cc2)c(O)c([N+](=O)[O-])c1,logD,[8],3.46
same,Log 1/MIC,[9],3.94
same,logP,"[10]; octanol/buffer, read-out: logP",5.06
same,pKa,[11],5.6
same,MIC,Actinomyces viscosus [4],45 µg/mL
CCCCCCCCCCc1ccc(O)c(C(=O)Nc2ccc(Br)cc2)c1,MIC,Actinomyces viscosus [4],3.25 µg/mL
CCCCCCCCCCCC(=O)c1ccc(O)c(C(=O)Nc2nc3ccccc3s2)c1,MIC,Actinomyces viscosus [4],> 20 µg/mL
CCCCc1ccc(O)c(C(=O)Nc2ccc(Br)cc2)c1,logD,[8],5.88
same,Log 1/MIC,[9],6.54
same,logP,"[10]; octanol/buffer, read-out: logP",6.09
same,pKa,[11],7.35
same,MIC,Actinomyces viscosus [4],0.1 µg/mL
CCCCCCCCCC(=O)c1ccc(O)c(C(=O)Nc2ccc([N+](=O)[O-])cc2)c1,MIC,Actinomyces israelii [1],0.05 µg/mL
same,MIC,Actinomyces naeslundii [2],0.5 µg/mL
same,MIC,Actinomyces naeslundii [3],0.05 µg/mL
same,MIC,Actinomyces viscosus [4],0.05 µg/mL
same,MIC,Actinomyces israelii [5],0.05 µg/mL
same,MIC,Actinomyces viscosus [6],0.05 µg/mL
same,MIC,Actinomyces israelii [7],0.05 µg/mL
O=C(Nc1nccs1)c1cc(Br)cc(Br)c1O,MIC,Actinomyces viscosus [4],95 µg/mL
O=C(Nc1ccc([N+](=O)[O-])cc1)c1cc(Br)cc(Br)c1O,MIC,Actinomyces viscosus [4],0.5 µg/mL
CCCc1ccc(O)c(C(=O)Nc2ccc(Br)cc2)c1,logD,[8],5.38
same,Log 1/MIC,[9],5.35
same,logP,"[10]; octanol/buffer, read-out: logP",5.61
same,pKa,[11],7.35
same,MIC,Actinomyces viscosus [4],1.5 µg/mL
O=C(Nc1nc2ccccc2s1)c1cc(Br)cc(Br)c1O,MIC,Actinomyces viscosus [4],1.7 µg/mL
CCCCCCc1ccc(O)c(C(=O)NCc2ccc(Cl)c(Cl)c2)c1,MIC,Actinomyces israelii [1],1 µg/mL
same,MIC,Actinomyces naeslundii [2],0.5 µg/mL
same,MIC,Actinomyces naeslundii [3],0.5 µg/mL
same,MIC,Actinomyces viscosus [4],0.5 µg/mL
same,MIC,Actinomyces israelii [5],0.5 µg/mL
same,MIC,Actinomyces viscosus [6],0.5 µg/mL
same,MIC,Actinomyces israelii [7],1 µg/mL
CCCCCCc1ccc(O)c(C(=O)Nc2cccc(C(F)(F)F)c2)c1,MIC,Actinomyces israelii [1],> 5 µg/mL
same,MIC,Actinomyces naeslundii [2],0.05 µg/mL
same,MIC,Actinomyces naeslundii [3],0.1 µg/mL
same,MIC,Actinomyces viscosus [4],0.5 µg/mL
same,MIC,Actinomyces israelii [5],0.5 µg/mL
same,MIC,Actinomyces viscosus [6],0.05 µg/mL
same,MIC,Actinomyces israelii [7],0.5 µg/mL
Cc1cc(C)nc(NC(=O)c2cc(Br)cc(Br)c2O)c1,MIC,Actinomyces viscosus [4],25 µg/mL
Cc1ccc(O)c(C(=O)NCCCCCCNC(=O)c2cc(C)ccc2O)c1,MIC,Actinomyces viscosus [4],> 20 µg/mL
Cc1cc(C)nc(NC(=O)c2cc(Br)cc(Br)c2O)n1,MIC,Actinomyces viscosus [4],200 µg/mL
CCCCCCc1ccc(O)c(C(=O)NCc2cccc([N+](=O)[O-])c2)c1,MIC,Actinomyces viscosus [4],0.5 µg/mL
Cc1cccnc1NC(=O)c1cc(Br)cc(Br)c1O,MIC,Actinomyces viscosus [4],> 155 µg/mL
CCCCCCCCCCCCCC(=O)c1ccc(O)c(C(=O)Nc2ccc(Br)cc2)c1,MIC,Actinomyces viscosus [4],> 5 µg/mL
CCCCCCc1ccc(O)c(C(=O)Nc2nc3ccccc3s2)c1,MIC,Actinomyces viscosus [4],> 20 µg/mL
CCCCCCc1ccc(O)c(C(=O)Nc2ccc(Br)cc2)c1,logD,[8],6.88
same,Log 1/MIC,[9],7.58
same,logP,"[10]; octanol/buffer, read-out: logP",7.11
same,pKa,[11],7.35
same,MIC,Actinomyces israelii [1],0.1 µg/mL
same,MIC,Actinomyces naeslundii [2],1 µg/mL
same,MIC,Actinomyces naeslundii [3],0.1 µg/mL
same,MIC,Actinomyces viscosus [4],0.01 µg/mL
same,MIC,Actinomyces israelii [5],0.1 µg/mL
same,MIC,Actinomyces viscosus [6],0.1 µg/mL
same,MIC,Actinomyces israelii [7],0.5 µg/mL
CCCCCCCCCCCC(=O)c1ccc(O)c(C(=O)Nc2ccc(Br)cc2)c1,logD,[8],7.88
same,Log 1/MIC,[9],7.37
same,logP,[10]; octanol/water,9.02
same,pKa,[11],6.1
same,MIC,Actinomyces israelii [1],0.5 µg/mL
same,MIC,Actinomyces naeslundii [2],0.5 µg/mL
same,MIC,Actinomyces naeslundii [3],1 µg/mL
same,MIC,Actinomyces viscosus [4],0.02 µg/mL
same,MIC,Actinomyces israelii [5],> 5 µg/mL
same,MIC,Actinomyces viscosus [6],0.5 µg/mL
same,MIC,Actinomyces israelii [7],> 5 µg/mL
COc1ccc(O)c(C(=O)Nc2ccc(Br)cc2)c1,MIC,Actinomyces viscosus [4],> 25 µg/mL
O=C(NCC1CCCCC1)c1cc(Br)cc(Br)c1O,MIC,Actinomyces viscosus [4],12 µg/mL
CCCCCCc1cc(C(=O)Nc2ccc(Br)cc2)c(O)c([N+](=O)[O-])c1,logD,[8],5.96
same,Log 1/MIC,[9],6.02
same,logP,"[10]; octanol/buffer, read-out: logP",7.56
same,pKa,[11],5.6
same,MIC,Actinomyces viscosus [4],0.4 µg/mL
O=C(NCCCCCCNC(=O)c1ccccc1O)c1ccccc1O,MIC,Actinomyces viscosus [4],> 20 µg/mL
CCCCCCCC(=O)c1ccc(O)c(C(=O)Nc2nc3ccccc3s2)c1,MIC,Actinomyces viscosus [4],1 µg/mL
CCCCCCCC(=O)c1ccc(O)c(C(=O)Nc2ccc(Br)cc2)c1,logD,[8],5.88
same,Log 1/MIC,[9],5.92
same,logP,"[10]; octanol/buffer, read-out: logP",7.02
same,pKa,[11],6.1
same,MIC,Actinomyces viscosus [4],0.5 µg/mL
Cc1ccc(O)c(C(=O)Nc2ccc(Br)cc2)c1,logD,[8],4.38
same,Log 1/MIC,[9],5.09
same,logP,"[10]; octanol/buffer, read-out: logP",4.61
same,pKa,[11],7.35
same,MIC,Actinomyces viscosus [4],2.5 µg/mL
same,MIC,Actinomyces viscosus [6],5.2 µg/mL
O=C(Nc1ccc(Br)cc1)c1cc(Br)ccc1O [DIBROMSALAN],logD,[8],4.75
same,Log 1/MIC,[9],5.87
same,logP,"[10]; octanol/buffer, read-out: logP",5.26
same,pKa,[11],6.85
same,MIC,Actinomyces viscosus [4],0.5 µg/mL
O=C(Nc1cccc(C(F)(F)F)c1)c1cc(Br)cc(Br)c1O [FLUOROSALAN],MIC,Actinomyces israelii [1],0.1 µg/mL
same,MIC,Actinomyces naeslundii [2],1 µg/mL
same,MIC,Actinomyces naeslundii [3],0.5 µg/mL
same,MIC,Actinomyces viscosus [4],1 µg/mL
same,MIC,Actinomyces israelii [5],0.5 µg/mL
same,MIC,Actinomyces viscosus [6],0.5 µg/mL
same,MIC,Actinomyces israelii [7],0.5 µg/mL
O=C(Nc1ccc(Br)cc1)c1cc(Br)cc(Br)c1O [TRIBROMSALAN],logD,[8],4.78
same,Log 1/MIC,[9],5.95
same,logP,"[10]; octanol/buffer, read-out: logP",6.15
same,pKa,[11],5.85
same,MIC,Actinomyces israelii [1],5 µg/mL
same,MIC,Actinomyces naeslundii [2],1 µg/mL
same,MIC,Actinomyces naeslundii [3],1 µg/mL
same,MIC,Actinomyces viscosus [4],0.5 µg/mL
same,MIC,Actinomyces israelii [5],1 µg/mL
same,MIC,Actinomyces viscosus [6],1 µg/mL
same,MIC,Actinomyces israelii [7],0.5 µg/mL
